Reference: patent US8138178B2, “Cyclic inhibitors of 11beta-hydroxysteroid dehydrogenase 1” (Vitae Pharmaceuticals, Inc., priority 2008, dated 2012)

Legend:
[1] = Biological Test Example 5: fraction unbound in human plasma (equilibrium dialysis); type: in vitro ADME
[2] = molecular target: human recombinant cytochrome P450 3A4 (Homo sapiens, UniProt P08684); assay: Biological Test Example 6: CYP3A4 inhibition; type: in vitro ADME
[3] = molecular target: human recombinant cytochrome P450 2C9 (Homo sapiens, UniProt P11712); assay: biochemical
[4] = molecular target: human recombinant cytochrome P450 2C19 (Homo sapiens, UniProt P33261); assay: Biological Test Example 8: CYP2C19 inhibition; type: in vitro ADME
Sequence of human recombinant cytochrome P450 2C19 (P33261 whole entry): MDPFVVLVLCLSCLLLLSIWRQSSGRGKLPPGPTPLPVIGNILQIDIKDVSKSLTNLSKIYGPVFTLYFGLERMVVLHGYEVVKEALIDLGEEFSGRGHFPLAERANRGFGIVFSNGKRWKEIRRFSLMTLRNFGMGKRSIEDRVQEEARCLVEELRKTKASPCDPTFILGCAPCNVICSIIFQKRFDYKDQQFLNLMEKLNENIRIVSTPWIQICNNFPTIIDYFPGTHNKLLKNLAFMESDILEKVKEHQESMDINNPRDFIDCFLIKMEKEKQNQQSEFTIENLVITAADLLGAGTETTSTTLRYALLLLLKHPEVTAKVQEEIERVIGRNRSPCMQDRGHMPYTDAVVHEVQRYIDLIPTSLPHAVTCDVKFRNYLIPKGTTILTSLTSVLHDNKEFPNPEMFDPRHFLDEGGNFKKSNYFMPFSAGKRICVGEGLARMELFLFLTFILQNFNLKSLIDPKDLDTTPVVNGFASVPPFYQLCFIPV

Sequence of human recombinant cytochrome P450 3A4 (P08684 whole entry): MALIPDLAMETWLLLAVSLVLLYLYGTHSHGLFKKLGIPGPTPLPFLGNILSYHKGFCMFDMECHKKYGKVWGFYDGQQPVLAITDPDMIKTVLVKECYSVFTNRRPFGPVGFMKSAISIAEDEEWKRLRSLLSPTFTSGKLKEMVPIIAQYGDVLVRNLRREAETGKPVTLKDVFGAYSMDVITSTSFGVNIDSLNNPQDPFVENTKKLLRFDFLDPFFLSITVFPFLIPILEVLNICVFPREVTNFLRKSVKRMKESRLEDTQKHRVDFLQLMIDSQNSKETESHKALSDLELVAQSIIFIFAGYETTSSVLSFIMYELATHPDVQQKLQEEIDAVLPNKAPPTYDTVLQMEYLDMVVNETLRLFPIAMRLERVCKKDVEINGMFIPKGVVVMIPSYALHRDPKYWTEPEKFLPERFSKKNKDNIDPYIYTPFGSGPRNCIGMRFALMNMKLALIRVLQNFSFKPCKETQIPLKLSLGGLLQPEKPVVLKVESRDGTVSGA
Sequence of human recombinant cytochrome P450 2C9 (P11712 whole entry): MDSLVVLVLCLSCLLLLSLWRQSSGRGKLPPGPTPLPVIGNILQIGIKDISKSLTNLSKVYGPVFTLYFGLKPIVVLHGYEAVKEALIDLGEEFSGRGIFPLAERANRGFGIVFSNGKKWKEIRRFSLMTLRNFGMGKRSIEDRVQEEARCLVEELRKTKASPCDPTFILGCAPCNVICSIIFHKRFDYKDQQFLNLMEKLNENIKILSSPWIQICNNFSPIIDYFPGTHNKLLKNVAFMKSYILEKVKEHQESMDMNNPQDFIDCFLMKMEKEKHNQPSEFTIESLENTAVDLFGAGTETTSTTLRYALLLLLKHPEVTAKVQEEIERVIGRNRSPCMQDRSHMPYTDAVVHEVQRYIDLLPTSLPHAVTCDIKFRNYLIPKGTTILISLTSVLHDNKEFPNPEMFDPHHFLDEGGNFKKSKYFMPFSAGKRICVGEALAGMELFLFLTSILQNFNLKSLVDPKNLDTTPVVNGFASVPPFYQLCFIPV

Row | fraction unbound [1] | Compound | IC50 [2] | further results
1 | 0.055 | C[C@@H](c1ccc(-c2ccn(CC(F)(F)F)c(=O)c2)cc1)N1CC[C@](CC(C)(C)O)(c2ccccc2)OC1=O [Example 66, (S)-6-(2-hydroxy-2-methylpropyl)-3-((S)-1-(4-(2-oxo-1-(2,2,2-trifluoroethyl)-1,2-dihydropyridin-4-yl)phenyl)ethyl)-6-phenyl-1,3-oxazinan-2-one] |  | 
2 | 0.123 | C[C@@H](c1ccc(-c2ccc(=O)n(C)c2)cc1)N1CC[C@](CC(C)(C)O)(c2ccc(F)cc2)OC1=O [Example 32, (S)-6-(4-fluorophenyl)-6-(2-hydroxy-2-methylpropyl)-3-((S)-1-(4-(1-methyl-6-oxo-1,6-dihydropyridin-3-yl)phenyl)ethyl)-1,3-oxazinan-2-one] |  | 
3 | 0.087 | C[C@@H](c1ccc(-c2ccn(C)c(=O)c2)cc1)N1CC[C@](CC(C)(C)O)(c2ccccc2)OC1=O [Example 48, (S)-6-(2-hydroxy-2-methylpropyl)-3-((S)-1-(4-(1-methyl-2-oxo-1,2-dihydropyridin-4-yl)phenyl)ethyl)-6-phenyl-1,3-oxazinan-2-one] |  | 
4 |  | COC[C@]1(c2ccccc2)CCN([C@@H](C)c2ccc(-c3ccc(=O)n(C)c3)cc2)C(=O)O1 [Example 77, (R)-6-Methoxymethyl-3-{(S)-1-[4-(1-methyl-6-oxo-1,6-dihydro-pyridin-3-yl)-phenyl]-ethyl}-6-phenyl-[1,3]oxazinan-2-one] | > 50 µM | IC50 [3]: > 50 µM
5 | 0.071 | CC[C@@H](c1ccc(-c2ccn(C)c(=O)c2)cc1)N1CC[C@](CC(C)(C)O)(c2ccccc2)OC1=O [Example 55, (S)-6-(2-hydroxy-2-methylpropyl)-3-((S)-1-(4-(1-methyl-2-oxo-1,2-dihydropyridin-4-yl)phenyl)propyl)-6-phenyl-1,3-oxazinan-2-one] |  | 
6 |  | C[C@@H](c1ccc(-c2ccc(=O)n(C)c2)cc1)N1CC[C@](CC(C)(C)O)(c2ccccc2F)OC1=O [Example 23, (S)-6-(2-fluorophenyl)-6-(2-hydroxy-2-methylpropyl)-3-((S)-1-(4-(1-methyl-6-oxo-1,6-dihydropyridin-3-yl)phenyl)ethyl)-1,3-oxazinan-2-one] | > 50 µM | IC50 [3]: > 50 µM
7 | 0.156 | C[C@@H](c1ccc(-c2ccn(C3CC3)c(=O)c2)cc1)N1CC[C@](CC(C)(C)O)(c2ccccc2)OC1=O [Example 75, 3-{(S)-1-[4-(1-Cyclopropyl-2-oxo-1,2-dihydro-pyridin-4-yl)-phenyl]-ethyl}-(S)-6-(2-hydroxy-2-methyl-propyl)-6-phenyl-[1,3]oxazinan-2-one] |  | 
8 | 0.128 | CCn1cc(-c2ccc([C@H](C)N3CC[C@](CC(C)(C)O)(c4ccccc4)OC3=O)cc2)ccc1=O [Example 53, (S)-3-((S)-1-(4-(1-ethyl-6-oxo-1,6-dihydropyridin-3-yl)phenyl)ethyl)-6-(2-hydroxy-2-methylpropyl)-6-phenyl-1,3-oxazinan-2-one] |  | 
9 | 0.091 | CC[C@@H](c1ccc(-c2ccc(=O)n(C)c2)cc1)N1CC[C@](CC(C)(C)O)(c2ccccc2)OC1=O [Example 54, (S)-6-(2-hydroxy-2-methylpropyl)-3-((S)-1-(4-(1-methyl-6-oxo-1,6-dihydropyridin-3-yl)phenyl)propyl)-6-phenyl-1,3-oxazinan-2-one] |  | 
10 | 0.139 | C[C@@H](c1ccc(-c2ccc(=O)n(C)c2)cc1)N1CC[C@](CCCO)(c2ccccc2)OC1=O [Example 30, (R)-6-(3-hydroxypropyl)-3-((S)-1-(4-(1-methyl-6-oxo-1,6-dihydropyridin-3-yl)phenyl)ethyl)-6-phenyl-1,3-oxazinan-2-one] |  | 
11 |  | (S)-3-((S)-1-(4-(1-(difluoromethyl)-2-oxo-1,2-dihydropyridin-4-yl)phenyl)ethyl)-6-(2-hydroxy-2-methylpropyl)-6-phenyl-1,3-oxazinan-2-one [Example 5] | 29 µM | 
12 | 0.146 | C[C@@H](c1ccc(-c2ccc(=O)n(C)c2)cc1)N1CC[C@](CC(C)(C)O)(c2ccccc2)OC1=O [Example 37, (S)-6-(2-hydroxy-2-methylpropyl)-3-((S)-1-(4-(1-methyl-6-oxo-1,6-dihydropyridin-3-yl)phenyl)ethyl)-6-phenyl-1,3-oxazinan-2-one] |  | 

Row | Compound | fraction unbound [1] | IC50 [2] | further results
13 | CC[C@@H](c1ccc(-c2ccc(=O)n(CC)c2)cc1)N1CC[C@](CC(C)(C)O)(c2ccccc2)OC1=O [Example 52, (S)-3-((S)-1-(4-(1-ethyl-6-oxo-1,6-dihydropyridin-3-yl)phenyl)propyl)-6-(2-hydroxy-2-methylpropyl)-6-phenyl-1,3-oxazinan-2-one] | 0.09 | 48 µM | IC50 [4]: 8 µM
